Source: ChEMBL document CHEMBL4507298 (2021)

Key:
Conditions in all cases: Compound concentration 10.0 uM
[1] = target: 5-hydroxytryptamine receptor 1E (Homo sapiens) (UniProt P28566)
[2] = target: 5-hydroxytryptamine receptor 2A (Homo sapiens) (UniProt P28223)
[3] = target: 5-hydroxytryptamine receptor 2B (Homo sapiens) (UniProt P41595)
[4] = target: D(3) dopamine receptor (Homo sapiens) (UniProt P35462)
[5] = target: D(1B) dopamine receptor (Homo sapiens) (UniProt P21918)
[6] = target: Sodium-dependent serotonin transporter (Homo sapiens) (UniProt P31645)
Sequence of Sodium-dependent serotonin transporter (Homo sapiens) (P31645 whole entry, looked up): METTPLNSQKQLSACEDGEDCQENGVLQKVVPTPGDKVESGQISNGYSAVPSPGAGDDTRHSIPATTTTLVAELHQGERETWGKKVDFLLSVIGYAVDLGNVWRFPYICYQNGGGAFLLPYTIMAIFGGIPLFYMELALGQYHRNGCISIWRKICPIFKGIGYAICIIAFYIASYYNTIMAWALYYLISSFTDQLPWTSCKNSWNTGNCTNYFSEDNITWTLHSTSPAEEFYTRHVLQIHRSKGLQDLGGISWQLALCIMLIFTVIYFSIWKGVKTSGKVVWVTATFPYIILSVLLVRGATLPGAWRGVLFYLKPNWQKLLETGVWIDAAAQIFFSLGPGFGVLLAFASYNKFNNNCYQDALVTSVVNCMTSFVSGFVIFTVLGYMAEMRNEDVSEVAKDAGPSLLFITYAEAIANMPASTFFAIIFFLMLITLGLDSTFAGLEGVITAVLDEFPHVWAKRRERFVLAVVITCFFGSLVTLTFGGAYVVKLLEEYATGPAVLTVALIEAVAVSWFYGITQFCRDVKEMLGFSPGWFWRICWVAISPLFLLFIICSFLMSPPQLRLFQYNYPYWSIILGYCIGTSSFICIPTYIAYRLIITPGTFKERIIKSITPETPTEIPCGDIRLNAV

[7] = target: Sodium-dependent noradrenaline transporter (Homo sapiens) (UniProt P23975)
Sequence of Sodium-dependent noradrenaline transporter (Homo sapiens) (P23975 whole entry): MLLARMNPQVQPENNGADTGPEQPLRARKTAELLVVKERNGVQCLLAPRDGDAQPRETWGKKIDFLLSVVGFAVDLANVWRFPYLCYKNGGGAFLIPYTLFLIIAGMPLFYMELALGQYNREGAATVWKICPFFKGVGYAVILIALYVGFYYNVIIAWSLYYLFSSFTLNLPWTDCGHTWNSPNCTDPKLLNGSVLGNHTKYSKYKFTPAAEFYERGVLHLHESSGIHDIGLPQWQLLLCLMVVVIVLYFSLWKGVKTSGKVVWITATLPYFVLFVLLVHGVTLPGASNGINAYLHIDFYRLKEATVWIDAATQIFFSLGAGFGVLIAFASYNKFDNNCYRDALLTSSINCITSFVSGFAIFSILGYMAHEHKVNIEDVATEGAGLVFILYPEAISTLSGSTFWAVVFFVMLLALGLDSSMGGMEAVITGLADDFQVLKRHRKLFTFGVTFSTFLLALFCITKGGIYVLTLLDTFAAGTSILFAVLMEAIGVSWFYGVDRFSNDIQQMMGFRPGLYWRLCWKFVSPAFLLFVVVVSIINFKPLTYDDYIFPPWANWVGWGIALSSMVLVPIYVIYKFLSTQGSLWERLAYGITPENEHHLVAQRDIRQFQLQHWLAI

[8] = target: Kappa-type opioid receptor (Homo sapiens) (UniProt P41145)
Sequence of Kappa-type opioid receptor (Homo sapiens) (P41145 whole entry): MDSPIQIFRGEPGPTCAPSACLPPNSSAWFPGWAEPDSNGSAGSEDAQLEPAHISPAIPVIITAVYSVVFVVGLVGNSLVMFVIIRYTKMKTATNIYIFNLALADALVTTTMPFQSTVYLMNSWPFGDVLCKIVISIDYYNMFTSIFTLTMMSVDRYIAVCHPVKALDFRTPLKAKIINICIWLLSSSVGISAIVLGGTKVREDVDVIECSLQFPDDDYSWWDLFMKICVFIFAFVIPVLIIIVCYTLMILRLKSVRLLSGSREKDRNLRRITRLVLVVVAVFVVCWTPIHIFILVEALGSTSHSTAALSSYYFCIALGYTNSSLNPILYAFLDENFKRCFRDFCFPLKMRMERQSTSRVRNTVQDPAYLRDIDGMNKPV

[9] = target: T1, GABA-A receptor; anion channel (Rattus norvegicus) (UniProt O09028+P15431+P18506+P18508+P19969+P20236+P23574+P23576+P28471+P28473+P30191+P62813+P63079+P63138+Q91ZM7+Q9ES14)
[10] = target: Histamine H2 receptor (Homo sapiens) (UniProt P25021)
Sequence of Histamine H2 receptor (Homo sapiens) (P25021 whole entry): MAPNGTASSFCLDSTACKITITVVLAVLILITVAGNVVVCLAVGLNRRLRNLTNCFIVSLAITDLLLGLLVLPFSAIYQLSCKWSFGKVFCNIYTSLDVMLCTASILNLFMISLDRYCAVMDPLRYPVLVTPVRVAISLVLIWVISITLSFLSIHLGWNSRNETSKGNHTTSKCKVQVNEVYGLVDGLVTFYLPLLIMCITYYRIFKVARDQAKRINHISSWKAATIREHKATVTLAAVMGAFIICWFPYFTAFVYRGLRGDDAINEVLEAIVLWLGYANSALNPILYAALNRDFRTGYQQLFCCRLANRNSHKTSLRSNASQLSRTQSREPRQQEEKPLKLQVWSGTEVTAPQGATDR

[11] = target: T2, Alpha-2A adrenergic receptor (Homo sapiens) (UniProt P08913)
T2 sequence (whole entry): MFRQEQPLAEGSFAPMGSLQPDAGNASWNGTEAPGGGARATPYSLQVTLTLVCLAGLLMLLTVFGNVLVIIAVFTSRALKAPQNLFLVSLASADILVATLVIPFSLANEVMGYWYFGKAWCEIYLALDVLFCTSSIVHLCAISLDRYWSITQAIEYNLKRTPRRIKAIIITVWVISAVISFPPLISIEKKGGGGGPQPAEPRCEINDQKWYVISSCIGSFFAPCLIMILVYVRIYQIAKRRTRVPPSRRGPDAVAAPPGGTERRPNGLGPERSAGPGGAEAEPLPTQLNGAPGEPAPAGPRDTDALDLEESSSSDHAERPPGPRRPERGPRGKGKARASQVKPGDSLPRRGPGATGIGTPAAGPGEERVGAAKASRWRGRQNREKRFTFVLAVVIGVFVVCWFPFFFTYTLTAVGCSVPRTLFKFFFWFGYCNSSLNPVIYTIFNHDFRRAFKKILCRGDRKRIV

[12] = target: T3, Alpha-2C adrenergic receptor (Homo sapiens) (UniProt P18825)
T3 sequence (whole entry): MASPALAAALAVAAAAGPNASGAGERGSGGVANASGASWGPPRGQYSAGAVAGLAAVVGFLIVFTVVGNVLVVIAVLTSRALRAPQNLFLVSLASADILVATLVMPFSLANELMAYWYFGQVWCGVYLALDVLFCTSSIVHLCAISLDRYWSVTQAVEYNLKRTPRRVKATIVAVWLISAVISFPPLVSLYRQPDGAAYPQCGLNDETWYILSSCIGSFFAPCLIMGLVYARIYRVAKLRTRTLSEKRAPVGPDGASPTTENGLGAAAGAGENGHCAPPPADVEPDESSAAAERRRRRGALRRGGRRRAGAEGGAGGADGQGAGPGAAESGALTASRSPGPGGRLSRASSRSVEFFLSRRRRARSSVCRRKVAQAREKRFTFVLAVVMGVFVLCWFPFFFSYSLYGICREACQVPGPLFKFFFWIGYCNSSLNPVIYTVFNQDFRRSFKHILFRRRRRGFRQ

[13] = target: T4, Muscarinic acetylcholine receptor M1 (Homo sapiens) (UniProt P11229)
T4 sequence (whole entry): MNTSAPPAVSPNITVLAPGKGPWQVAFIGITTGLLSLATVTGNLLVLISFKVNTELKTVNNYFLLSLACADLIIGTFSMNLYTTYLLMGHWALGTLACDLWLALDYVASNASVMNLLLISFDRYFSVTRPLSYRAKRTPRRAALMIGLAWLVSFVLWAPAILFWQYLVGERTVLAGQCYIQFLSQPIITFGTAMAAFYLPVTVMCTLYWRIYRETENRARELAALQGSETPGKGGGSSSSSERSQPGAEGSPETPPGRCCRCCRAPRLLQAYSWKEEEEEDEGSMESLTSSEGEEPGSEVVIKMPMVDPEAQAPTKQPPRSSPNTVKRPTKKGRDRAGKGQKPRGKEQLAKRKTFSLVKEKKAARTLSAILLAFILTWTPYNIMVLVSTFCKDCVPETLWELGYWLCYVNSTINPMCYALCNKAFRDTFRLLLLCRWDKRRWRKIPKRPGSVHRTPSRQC

[14] = target: T5, Muscarinic acetylcholine receptor M2 (Homo sapiens) (UniProt P08172)
T5 sequence (whole entry): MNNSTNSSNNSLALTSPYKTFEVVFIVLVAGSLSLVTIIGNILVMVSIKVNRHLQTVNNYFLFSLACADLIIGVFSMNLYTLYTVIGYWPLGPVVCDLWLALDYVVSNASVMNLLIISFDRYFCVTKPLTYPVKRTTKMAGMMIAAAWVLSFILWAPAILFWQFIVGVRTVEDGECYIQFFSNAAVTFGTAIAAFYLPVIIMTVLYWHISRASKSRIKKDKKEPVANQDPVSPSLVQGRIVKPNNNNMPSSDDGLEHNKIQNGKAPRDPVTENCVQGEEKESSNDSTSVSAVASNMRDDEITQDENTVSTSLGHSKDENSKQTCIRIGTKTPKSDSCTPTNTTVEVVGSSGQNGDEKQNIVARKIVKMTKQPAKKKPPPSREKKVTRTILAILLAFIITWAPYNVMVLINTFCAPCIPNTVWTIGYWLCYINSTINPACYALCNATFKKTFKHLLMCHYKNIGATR

[15] = target: Muscarinic acetylcholine receptor M3 (Homo sapiens) (UniProt P20309)
Sequence of Muscarinic acetylcholine receptor M3 (Homo sapiens) (P20309 whole entry, looked up): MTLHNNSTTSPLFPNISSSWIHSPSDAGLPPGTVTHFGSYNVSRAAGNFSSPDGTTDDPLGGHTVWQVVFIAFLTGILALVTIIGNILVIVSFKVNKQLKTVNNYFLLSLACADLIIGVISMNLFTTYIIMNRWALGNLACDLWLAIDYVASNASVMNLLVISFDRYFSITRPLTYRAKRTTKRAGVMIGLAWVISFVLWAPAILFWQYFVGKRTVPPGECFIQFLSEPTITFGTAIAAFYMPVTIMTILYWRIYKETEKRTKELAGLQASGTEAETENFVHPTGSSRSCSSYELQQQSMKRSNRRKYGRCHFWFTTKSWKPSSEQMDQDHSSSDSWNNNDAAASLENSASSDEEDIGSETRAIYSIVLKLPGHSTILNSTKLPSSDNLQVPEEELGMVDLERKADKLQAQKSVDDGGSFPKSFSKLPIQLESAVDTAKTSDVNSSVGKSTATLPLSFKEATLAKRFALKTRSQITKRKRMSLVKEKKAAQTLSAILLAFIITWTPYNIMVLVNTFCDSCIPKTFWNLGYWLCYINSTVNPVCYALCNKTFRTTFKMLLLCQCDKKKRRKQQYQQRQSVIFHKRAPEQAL

[16] = target: T1, GABA-A receptor; anion channel (Rattus norvegicus); remark: listed apart in the source

Sequence of D(1B) dopamine receptor (Homo sapiens) (P21918 whole entry): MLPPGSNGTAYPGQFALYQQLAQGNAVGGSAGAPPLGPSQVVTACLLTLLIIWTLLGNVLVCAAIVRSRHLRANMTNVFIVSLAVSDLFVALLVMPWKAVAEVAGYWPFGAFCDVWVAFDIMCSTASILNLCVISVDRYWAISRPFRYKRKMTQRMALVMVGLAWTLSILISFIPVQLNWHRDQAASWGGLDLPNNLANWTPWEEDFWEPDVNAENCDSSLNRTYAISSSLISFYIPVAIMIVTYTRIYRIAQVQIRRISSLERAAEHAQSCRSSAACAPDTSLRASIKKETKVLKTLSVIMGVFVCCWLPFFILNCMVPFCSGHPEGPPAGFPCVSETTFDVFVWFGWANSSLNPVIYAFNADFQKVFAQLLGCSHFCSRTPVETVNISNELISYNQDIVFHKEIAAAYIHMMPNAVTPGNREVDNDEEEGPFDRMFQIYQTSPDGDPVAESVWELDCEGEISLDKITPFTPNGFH
Sequence of 5-hydroxytryptamine receptor 2B (Homo sapiens) (P41595 whole entry): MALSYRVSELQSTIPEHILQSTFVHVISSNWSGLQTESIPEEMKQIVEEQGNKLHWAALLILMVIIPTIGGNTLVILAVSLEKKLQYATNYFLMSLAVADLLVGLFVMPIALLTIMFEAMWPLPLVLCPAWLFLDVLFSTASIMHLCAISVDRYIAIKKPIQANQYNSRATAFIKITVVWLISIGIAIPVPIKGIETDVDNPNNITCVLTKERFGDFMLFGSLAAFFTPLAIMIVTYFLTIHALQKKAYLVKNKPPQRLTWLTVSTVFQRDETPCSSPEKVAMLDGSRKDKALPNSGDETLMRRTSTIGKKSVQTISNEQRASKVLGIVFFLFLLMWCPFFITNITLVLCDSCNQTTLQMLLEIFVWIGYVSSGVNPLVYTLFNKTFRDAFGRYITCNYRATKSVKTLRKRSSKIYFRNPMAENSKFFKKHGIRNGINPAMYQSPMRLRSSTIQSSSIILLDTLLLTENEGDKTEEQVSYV
Sequence of D(3) dopamine receptor (Homo sapiens) (P35462 whole entry): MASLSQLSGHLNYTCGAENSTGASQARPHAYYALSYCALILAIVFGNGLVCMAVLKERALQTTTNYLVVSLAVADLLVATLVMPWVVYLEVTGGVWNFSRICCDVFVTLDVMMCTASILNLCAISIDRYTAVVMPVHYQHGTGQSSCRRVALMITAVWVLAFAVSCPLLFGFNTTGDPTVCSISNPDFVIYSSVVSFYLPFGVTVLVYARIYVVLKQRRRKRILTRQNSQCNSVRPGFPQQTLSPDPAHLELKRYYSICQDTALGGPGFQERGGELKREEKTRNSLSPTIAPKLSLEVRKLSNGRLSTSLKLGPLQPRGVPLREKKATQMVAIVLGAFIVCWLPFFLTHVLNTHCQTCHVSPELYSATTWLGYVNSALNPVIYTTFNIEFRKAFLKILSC
Sequence of 5-hydroxytryptamine receptor 2A (Homo sapiens) (P28223 whole entry): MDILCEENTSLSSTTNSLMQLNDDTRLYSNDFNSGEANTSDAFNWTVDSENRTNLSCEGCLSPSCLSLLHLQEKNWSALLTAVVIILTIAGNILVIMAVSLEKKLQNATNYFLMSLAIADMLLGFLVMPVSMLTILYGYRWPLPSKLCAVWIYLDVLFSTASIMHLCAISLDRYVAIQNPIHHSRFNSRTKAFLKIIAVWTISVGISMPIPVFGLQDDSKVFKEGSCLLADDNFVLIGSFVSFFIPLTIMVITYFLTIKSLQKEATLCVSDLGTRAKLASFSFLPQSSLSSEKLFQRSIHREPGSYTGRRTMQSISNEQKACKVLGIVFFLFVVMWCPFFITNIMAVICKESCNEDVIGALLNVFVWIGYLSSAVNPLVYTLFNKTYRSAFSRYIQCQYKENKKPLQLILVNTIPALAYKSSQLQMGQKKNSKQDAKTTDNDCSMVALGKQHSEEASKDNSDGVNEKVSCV
Sequence of 5-hydroxytryptamine receptor 1E (Homo sapiens) (P28566 whole entry): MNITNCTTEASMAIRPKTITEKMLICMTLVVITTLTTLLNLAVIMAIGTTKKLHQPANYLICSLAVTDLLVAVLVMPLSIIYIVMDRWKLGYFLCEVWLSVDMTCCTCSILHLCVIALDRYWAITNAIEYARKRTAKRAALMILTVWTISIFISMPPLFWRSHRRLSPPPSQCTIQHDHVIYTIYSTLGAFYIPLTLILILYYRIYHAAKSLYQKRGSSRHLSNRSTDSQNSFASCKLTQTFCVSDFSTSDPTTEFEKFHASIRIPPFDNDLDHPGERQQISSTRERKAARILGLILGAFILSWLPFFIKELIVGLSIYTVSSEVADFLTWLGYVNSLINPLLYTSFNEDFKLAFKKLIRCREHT

| SMILES | inhibition [1] [%] | inhibition [2] [%] | inhibition [3] [%] | inhibition [4] [%] | inhibition [5] [%] | inhibition [6] [%] | inhibition [7] [%] | inhibition [8] [%] | inhibition [9] [%] | inhibition [10] [%] | inhibition [11] [%] | inhibition [12] [%] | inhibition [13] [%] | inhibition [14] [%] | inhibition [15] [%] | inhibition [16] [%] |
| --- | --- | --- | --- | --- | --- | --- | --- | --- | --- | --- | --- | --- | --- | --- | --- | --- |
| COc1ccc2cc(OCC3(C(=O)O)CN(C(=O)c4ccc(F)cc4)C3)ccc2c1 [PF-04418948] | 11 | 6.25 | -0.11 | 33 | -2.51 | -6.83 | 11 | 16.4 | -1.97 | 3 | 21.8 | 9.72 | -0.03 | 16.7 | 19.2 | 18.7 |
| O=C(c1ccc(F)cc1)N1CC(COc2ccc(Br)cc2)(C(=O)O)C1 [PF-04475866] | 12.2 | -2.23 | -2.5 | 3.89 | 2.2 | -6.29 | 16.8 | -9.45 | -8.88 | 15.7 | 14.2 | 11.3 | -0.69 | 26.7 | 27.9 | -5.33 |
